Measured values taken from patent US20100204205A1 (priority 2007, published 2010).
“Also recorded” adds a separate entry of the source.

How the values were obtained:
[1] = controlled studies; cited from earlier work
[2] = administered IP or IV; cited from earlier work
[3] = in vivo; cited from earlier work
[4] = Example 1: tolerability study of mirtazapine and betahistine; format: in vivo, normal, health subjects; conditions: 6 weeks of therapy, healthy subjects
Description: The subjects receive 2 capsules per day, one in the morning and one at bedtime. […] In a different dosage range, the subjects receive 3 capsules per day, one in the morning, one at noon and one at bedtime. […] In a different dosage range, the subjects receive 2 capsules per day, one in the morning and one at bedtime. […] All medications are administered in an over-encapsulated format that ensures blinding of study participants, staff and investigators. All subjects are scheduled to receive a total of 6 weeks of therapy, and are required to return to the clinics after 1, 2, 4 and 6 weeks of therapy. Patients are required to complete paper self-assessments, electronic diary assessments, computer based cognitive testing, as well as vital signs and weight assessments at the clinic visits.

alpha-2 receptors = conditions: cited from earlier work
5HT1B receptors = 5HT1B receptors (Homo sapiens, UniProt P28222); conditions: cited from earlier work
Chain of 5HT1B receptors (P28222 whole entry): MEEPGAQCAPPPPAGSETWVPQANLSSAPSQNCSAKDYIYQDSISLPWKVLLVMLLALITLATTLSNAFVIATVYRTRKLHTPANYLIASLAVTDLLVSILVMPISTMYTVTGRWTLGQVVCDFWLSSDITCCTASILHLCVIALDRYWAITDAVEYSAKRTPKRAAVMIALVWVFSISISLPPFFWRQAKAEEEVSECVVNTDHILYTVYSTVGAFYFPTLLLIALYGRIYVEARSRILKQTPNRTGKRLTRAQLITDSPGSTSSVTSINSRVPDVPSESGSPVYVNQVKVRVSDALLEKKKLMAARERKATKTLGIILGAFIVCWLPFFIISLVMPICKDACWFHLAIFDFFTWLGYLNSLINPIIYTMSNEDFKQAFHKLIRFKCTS

reuptake of dopamine = reuptake of dopamine (Homo sapiens, UniProt Q01959); conditions: cited from earlier work
Chain of reuptake of dopamine (Q01959 whole entry): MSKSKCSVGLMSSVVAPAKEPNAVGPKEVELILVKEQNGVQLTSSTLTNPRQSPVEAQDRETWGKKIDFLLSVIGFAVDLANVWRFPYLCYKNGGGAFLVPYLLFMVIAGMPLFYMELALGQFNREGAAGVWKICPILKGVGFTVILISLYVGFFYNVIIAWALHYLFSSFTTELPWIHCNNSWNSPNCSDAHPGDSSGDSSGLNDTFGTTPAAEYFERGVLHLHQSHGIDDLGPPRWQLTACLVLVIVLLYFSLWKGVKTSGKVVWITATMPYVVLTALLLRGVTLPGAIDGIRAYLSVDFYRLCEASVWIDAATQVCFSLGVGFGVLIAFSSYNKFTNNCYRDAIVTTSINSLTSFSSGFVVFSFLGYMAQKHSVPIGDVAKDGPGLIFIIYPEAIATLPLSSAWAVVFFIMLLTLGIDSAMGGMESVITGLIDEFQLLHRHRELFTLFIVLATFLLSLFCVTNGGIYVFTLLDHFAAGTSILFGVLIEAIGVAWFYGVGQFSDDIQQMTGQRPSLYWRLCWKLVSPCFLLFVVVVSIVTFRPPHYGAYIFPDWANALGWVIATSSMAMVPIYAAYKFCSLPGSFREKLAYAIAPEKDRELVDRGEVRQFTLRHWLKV

5HT1A receptors = biological target: T1, 5HT1A receptors (Homo sapiens, UniProt P08908); conditions: cited from earlier work
T1 sequence (P08908 1-422): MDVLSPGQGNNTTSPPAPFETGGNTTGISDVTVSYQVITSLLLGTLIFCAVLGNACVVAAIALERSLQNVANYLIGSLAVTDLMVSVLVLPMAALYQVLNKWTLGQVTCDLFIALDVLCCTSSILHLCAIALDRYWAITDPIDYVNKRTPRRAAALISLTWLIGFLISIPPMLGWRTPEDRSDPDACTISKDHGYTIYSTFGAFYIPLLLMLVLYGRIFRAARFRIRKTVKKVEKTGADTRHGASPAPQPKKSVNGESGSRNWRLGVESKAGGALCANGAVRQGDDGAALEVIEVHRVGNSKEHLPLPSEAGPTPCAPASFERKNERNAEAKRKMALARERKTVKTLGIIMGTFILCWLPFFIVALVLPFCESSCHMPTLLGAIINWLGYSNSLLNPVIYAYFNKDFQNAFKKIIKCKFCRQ

[5] = biological target: 5HT2A serotonin receptors (Homo sapiens, UniProt P28223); conditions: cited from earlier work
Chain of 5HT2A serotonin receptors (P28223 whole entry): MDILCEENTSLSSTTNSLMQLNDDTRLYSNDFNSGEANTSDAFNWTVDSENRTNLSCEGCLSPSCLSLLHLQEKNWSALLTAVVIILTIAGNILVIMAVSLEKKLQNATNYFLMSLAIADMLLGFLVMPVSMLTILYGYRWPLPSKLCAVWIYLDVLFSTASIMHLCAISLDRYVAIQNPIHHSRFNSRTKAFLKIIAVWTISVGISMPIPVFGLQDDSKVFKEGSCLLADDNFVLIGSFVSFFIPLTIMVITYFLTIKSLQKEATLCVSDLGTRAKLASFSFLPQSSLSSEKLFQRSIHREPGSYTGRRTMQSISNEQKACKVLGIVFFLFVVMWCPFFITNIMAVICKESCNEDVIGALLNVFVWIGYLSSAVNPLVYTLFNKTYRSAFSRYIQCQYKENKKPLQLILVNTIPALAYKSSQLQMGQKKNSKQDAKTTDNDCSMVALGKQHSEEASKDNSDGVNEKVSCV

[6] = system: muscarinic cholinergic receptors; conditions: cited from earlier work
[7] = biological target: T2, 5HT2C serotonin receptors (Homo sapiens, UniProt P28335); conditions: cited from earlier work
T2 sequence (P28335 33-458): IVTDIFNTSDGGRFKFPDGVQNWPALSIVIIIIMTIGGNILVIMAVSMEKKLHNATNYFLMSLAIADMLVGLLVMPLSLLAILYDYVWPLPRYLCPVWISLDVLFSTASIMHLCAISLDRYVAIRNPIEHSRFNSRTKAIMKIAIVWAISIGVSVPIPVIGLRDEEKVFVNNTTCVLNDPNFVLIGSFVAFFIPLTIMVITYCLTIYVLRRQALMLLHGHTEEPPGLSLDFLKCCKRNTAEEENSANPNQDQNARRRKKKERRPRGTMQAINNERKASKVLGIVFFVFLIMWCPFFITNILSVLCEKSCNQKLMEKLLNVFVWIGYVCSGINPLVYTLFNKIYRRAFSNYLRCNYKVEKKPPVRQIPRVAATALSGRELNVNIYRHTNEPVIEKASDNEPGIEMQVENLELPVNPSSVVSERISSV

histamine H1 receptors = histamine H1 receptors (Homo sapiens, UniProt P35367); conditions: cited from earlier work
Chain of histamine H1 receptors (P35367 whole entry): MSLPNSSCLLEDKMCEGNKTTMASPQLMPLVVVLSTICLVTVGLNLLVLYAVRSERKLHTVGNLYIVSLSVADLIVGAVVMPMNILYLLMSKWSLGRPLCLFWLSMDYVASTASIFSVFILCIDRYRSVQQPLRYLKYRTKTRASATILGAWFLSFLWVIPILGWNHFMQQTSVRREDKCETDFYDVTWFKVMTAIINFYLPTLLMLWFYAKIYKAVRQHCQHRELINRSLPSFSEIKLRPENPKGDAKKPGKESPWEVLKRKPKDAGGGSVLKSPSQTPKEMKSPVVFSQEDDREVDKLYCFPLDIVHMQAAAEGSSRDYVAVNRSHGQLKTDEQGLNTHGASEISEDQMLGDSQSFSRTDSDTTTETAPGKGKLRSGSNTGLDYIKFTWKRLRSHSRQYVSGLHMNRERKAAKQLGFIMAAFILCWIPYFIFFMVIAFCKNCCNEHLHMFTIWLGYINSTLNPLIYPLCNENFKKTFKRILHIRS

[8] = system: alpha-1 adrenergic receptors; conditions: cited from earlier work
reuptake of 5HT = reuptake of 5HT (Homo sapiens, UniProt P31645); conditions: cited from earlier work
Chain of reuptake of 5HT (P31645 whole entry): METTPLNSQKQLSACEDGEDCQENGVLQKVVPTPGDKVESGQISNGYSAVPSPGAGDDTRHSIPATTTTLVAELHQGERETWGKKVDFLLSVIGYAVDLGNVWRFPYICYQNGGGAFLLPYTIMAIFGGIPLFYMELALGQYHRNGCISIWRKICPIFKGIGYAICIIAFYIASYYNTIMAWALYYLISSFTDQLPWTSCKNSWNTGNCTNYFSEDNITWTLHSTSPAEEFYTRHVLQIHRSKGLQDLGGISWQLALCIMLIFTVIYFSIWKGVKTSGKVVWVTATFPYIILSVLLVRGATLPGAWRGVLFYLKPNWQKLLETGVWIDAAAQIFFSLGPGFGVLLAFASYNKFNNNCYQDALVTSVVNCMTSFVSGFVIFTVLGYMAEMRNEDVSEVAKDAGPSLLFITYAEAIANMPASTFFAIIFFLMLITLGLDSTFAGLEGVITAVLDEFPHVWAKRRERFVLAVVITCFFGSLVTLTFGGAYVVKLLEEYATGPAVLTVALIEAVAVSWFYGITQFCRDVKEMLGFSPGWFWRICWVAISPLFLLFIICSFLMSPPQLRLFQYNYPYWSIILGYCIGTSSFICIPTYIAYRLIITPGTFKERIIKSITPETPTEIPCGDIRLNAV

norepinephrine reuptake = norepinephrine reuptake (Homo sapiens, UniProt P23975); conditions: cited from earlier work
Chain of norepinephrine reuptake (P23975 whole entry): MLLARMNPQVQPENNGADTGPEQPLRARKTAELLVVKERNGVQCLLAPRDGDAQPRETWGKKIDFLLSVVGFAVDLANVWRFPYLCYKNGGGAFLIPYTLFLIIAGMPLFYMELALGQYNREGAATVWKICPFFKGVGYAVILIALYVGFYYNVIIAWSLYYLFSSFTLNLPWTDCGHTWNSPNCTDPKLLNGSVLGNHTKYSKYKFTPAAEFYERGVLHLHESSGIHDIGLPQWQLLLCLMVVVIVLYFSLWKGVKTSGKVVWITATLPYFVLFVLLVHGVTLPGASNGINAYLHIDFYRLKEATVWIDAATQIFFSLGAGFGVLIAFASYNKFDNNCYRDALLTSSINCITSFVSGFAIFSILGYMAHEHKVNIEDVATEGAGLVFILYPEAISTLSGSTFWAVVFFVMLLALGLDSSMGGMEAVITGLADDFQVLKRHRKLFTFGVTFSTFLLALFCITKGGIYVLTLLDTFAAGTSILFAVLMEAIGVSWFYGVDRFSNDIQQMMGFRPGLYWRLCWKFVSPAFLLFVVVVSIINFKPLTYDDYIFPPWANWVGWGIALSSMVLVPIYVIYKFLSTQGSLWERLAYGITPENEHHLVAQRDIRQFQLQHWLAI

5HT3 serotonin receptors = biological target: T3, 5HT3 serotonin receptors (Homo sapiens, UniProt P46098); conditions: cited from earlier work
T3 sequence (P46098 24-478): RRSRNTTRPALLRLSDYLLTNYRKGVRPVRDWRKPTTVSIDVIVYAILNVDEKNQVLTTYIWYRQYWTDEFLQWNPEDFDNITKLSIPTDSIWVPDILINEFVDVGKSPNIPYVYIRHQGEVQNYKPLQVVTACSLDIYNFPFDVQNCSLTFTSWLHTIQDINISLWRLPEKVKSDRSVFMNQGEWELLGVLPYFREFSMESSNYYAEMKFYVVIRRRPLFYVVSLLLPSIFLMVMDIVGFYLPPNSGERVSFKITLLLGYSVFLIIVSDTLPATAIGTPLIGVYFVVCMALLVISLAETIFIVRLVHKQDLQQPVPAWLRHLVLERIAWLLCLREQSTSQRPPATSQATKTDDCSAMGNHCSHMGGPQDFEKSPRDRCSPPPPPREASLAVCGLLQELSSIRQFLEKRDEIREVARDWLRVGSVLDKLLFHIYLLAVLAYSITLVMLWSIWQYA

5HT2 receptors = conditions: cited from earlier work

| SMILES | appetite increase reported, share of patients [1] [%] | weight gain of greater than or equal to 7% of body weight, share of patients [1] [%] | food intake [2] | satiety signaling [2] | blood-brain barrier passage [3] | side effects [4] | antagonist activity at central alpha-2 receptors (alpha-2 receptors) | affinity for the 5HT1B receptors (5HT1B receptors) | effect on the reuptake of dopamine (reuptake of dopamine) | affinity for the 5HT1A receptors (5HT1A receptors) | antagonist activity at 5HT2A serotonin receptors [5] | antagonist activity at muscarinic cholinergic receptors [6] | antagonist activity at 5HT2C serotonin receptors [7] | antagonist activity at histamine H1 receptors (histamine H1 receptors) | antagonist activity at alpha-1 adrenergic receptors [8] | effect on the reuptake of 5HT (reuptake of 5HT) | inhibition of norepinephrine reuptake (norepinephrine reuptake) | antagonist activity at 5HT3 serotonin receptors (5HT3 serotonin receptors) | antagonist activity at 5HT2 receptors (5HT2 receptors) |
| --- | --- | --- | --- | --- | --- | --- | --- | --- | --- | --- | --- | --- | --- | --- | --- | --- | --- | --- | --- |
| CN(C)CCC=C1c2ccccc2CCc2ccccc21 [amitriptyline] | 6 | 5.9 |  |  |  |  |  |  |  |  |  |  |  |  |  |  |  |  |  |
| CNCCc1ccccn1 [betahistine, 2-[2-(methylamino)ethyl]pyridine] |  |  | marginally inhibit food intake | increase the satiety signaling | crosses the blood-brain barrier | causes insomnia, nausea/vomiting, and weight loss |  |  |  |  |  |  |  |  |  |  |  |  |  |
| CN1CCN2c3ncccc3Cc3ccccc3C2C1 (centres unmarked) [mirtazapine, 1,2,3,4,10,14b-hexahydro-2-methylpyrazino[2,1-a]pyrido[2,3-c]benzazepine] |  |  |  |  |  | does cause weight gain, sedation, and cognitive deficits | potent antagonist | lacks significant affinity | no effect | lacks significant affinity | potent antagonist | moderate antagonist; also recorded: weak antagonist | potent antagonist | potent antagonist | moderate; also recorded: weak antagonist | no effect | very weak inhibitor | potent antagonist | potent antagonist |
